{"source": "paper PMC8596838", "about": "“Xylose‐Configured Cyclophellitols as Selective Inhibitors for Glucocerebrosidase” (Chembiochem, 2021)", "target": "T1, GBA3 (Homo sapiens, UniProt Q9H227)", "T1 construct": "expressed in transfected cells; host or cells: HEK293T (GBA/GBA2 KO background for the fluorogenic assay; endogenous-GBA background with GBA2 and GBA3 overexpressed for ABPP and intact-cell assays)", "T1 sequence (Q9H227 1-469)": "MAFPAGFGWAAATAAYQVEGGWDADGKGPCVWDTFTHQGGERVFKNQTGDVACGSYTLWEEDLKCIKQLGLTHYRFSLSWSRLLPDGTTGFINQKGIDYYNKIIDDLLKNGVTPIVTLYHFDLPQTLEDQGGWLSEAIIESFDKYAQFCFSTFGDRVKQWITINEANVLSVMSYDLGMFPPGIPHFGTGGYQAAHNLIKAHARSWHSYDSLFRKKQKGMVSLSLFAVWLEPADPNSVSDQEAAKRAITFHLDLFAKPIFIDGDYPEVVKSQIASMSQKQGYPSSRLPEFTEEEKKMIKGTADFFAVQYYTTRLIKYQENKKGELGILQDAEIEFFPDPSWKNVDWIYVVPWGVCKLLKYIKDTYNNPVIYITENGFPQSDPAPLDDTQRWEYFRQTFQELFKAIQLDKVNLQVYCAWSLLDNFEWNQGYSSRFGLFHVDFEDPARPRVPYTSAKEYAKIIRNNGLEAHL", "assay": "ABP labeling of β-D-glucosidases in HEK293T cell lysate, GBA3", "type": "biochemical", "conditions": "30 min, pH 6.0", "method": "We next investigated, by ABPP, the GBA/GBA2/GBA3 activity and selectivity of β‐D‐xylo‐cyclophellitol aziridine ABPs 6 and 8 in comparison to those of GBA‐specific ABP 9 [31] or ABP 10.\nFigure 4 (A) ABP labeling of β‐D‐glucosidases. A lysate of HEK293T cells expressing human GBA, GBA2 and GBA3 was incubated with indicated ABPs (6, 9 or 10) for 30 min at pH 6.0. Fluorescently labeled proteins were visualized after SDS‐PAGE. (B) Labeling with ABP 6 of wild type or mutant GBA2 (E527G nucleophile mutation and D667G acid/base mutation) expressed in HEK293T cells.\nABP labeling procedure: Glycosidases were labeled with excess fluorescent ABPs at optimum conditions. […] After ABP incubation, proteins were denatured by boiling the samples with 5× Laemmli buffer (50 % (v/v) 1 M Tris‐HCl, pH 6.8, 50 % (v/v) 100 % glycerol, 10 % (w/v) DTT, 10 % (w/v) SDS, 0.01 % (w/v) bromophenol blue) for 5 min at 98 °C, and separated by electrophoresis on 10 % (w/v) SDS‐PAGE gels running continuously at 90 V. Wet slab‐gels were scanned on fluorescence using the Typhoon FLA 9500 (GE Healthcare) at λEX 473 nm and λEM≥510 nm for green fluorescent ABP 8; and at λEX 635 nm and λEM≥665 nm for ABP 6, 9 and 10. ABP‐emitted fluorescence was quantified using ImageQuant software (GE Healthcare, Chicago, IL, USA) and curve‐fitted using Prism 8.0 (GraphPad Software). […]"}
{"smiles": "CN1/C(=C/C=C/C=C/C2=[N+](CCCCCC(=O)NCc3cn(CCCCCCCCN4[C@H]5[C@H](O)[C@@H](O)[C@H](O)C[C@H]54)nn3)c3ccccc3C2(C)C)C(C)(C)c2ccccc21", "note": "(stereo partly shown) [ABP 6]", "values": [{"measurement": "labeling of GBA3 compared with ABP 10", "result": "tenfold less efficiently"}]}
